# Reference: ChEMBL document CHEMBL1201862, “PubChem BioAssay data set” (2004)
#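 The compound was tested at five concentrations on cells cultured in 96-well plates, with a 48-hour exposure period. GI50 is the concentration that inhibits growth by half.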 The source made the active and inactive calls. Cut-off read from the data, not from the text of the source: active = GI50 up to about 1.1 µM and inactive = higher.
# Columns and labels:
# Test in all cases: NCI tumour cell line growth inhibition, 48 h
# [1] = system: ACHN
# [2] = system: CAKI-1
# [3] = system: DU-145
# [4] = system: EKVX
# [5] = system: HCT-116
# [6] = system: HL-60
# [7] = system: KM12
# [8] = system: MDA-MB-231
# [9] = system: Malme-3M
# [10] = system: NCI-H460
# [11] = system: NCI-H522
# [12] = system: NCI/ADR-RES
# [13] = system: OVCAR-4
# [14] = system: OVCAR-5
# [15] = system: PC-3
# [16] = system: RXF 393
# [17] = system: SK-MEL-28
# [18] = system: SK-MEL-5
# [19] = system: SW-620
# [20] = system: UACC-257
SMILES,GI50 [1],GI50 [2],GI50 [3],GI50 [4],GI50 [5],GI50 [6],GI50 [7],GI50 [8],GI50 [9],GI50 [10],GI50 [11],GI50 [12],GI50 [13],GI50 [14],GI50 [15],GI50 [16],GI50 [17],GI50 [18],GI50 [19],GI50 [20]
COc1ccc(/N=C(C)/C(C)=N/c2ccc(OC)cc2)cc1,3.36 µM (inactive),35.5 µM (inactive),30.9 µM (inactive),> 100 µM (inactive),72.6 µM (inactive),52.2 µM (inactive),6.85 µM (inactive),> 100 µM (inactive),> 100 µM (inactive),20.3 µM (inactive),> 100 µM (inactive),62.8 µM (inactive),17.7 µM (inactive),> 100 µM (inactive),40.7 µM (inactive),> 100 µM (inactive),> 100 µM (inactive),64 µM (inactive),63.1 µM (inactive),56.9 µM (inactive)
Cc1cc(=O)n2c3c(c4c(cc13)c(CN(C)C)cc(=O)n4C)OC2,4.97 µM (inactive),13.1 µM (inactive),20 µM (inactive),20.6 µM (inactive),5.2 µM (inactive),22.2 µM (inactive),14.7 µM (inactive),33.3 µM (inactive),12.4 µM (inactive),4.46 µM (inactive),0.9 µM (active),15 µM (inactive),9.27 µM (inactive),37.9 µM (inactive),19.9 µM (inactive),6.56 µM (inactive),31.8 µM (inactive),12.2 µM (inactive),9.98 µM (inactive),21.9 µM (inactive)
COc1ccc(/C=C(/C#N)C(N)=O)cc1OC,> 100 µM (inactive),> 100 µM (inactive),> 100 µM (inactive),> 100 µM (inactive),> 100 µM (inactive),> 100 µM (inactive),> 100 µM (inactive),> 100 µM (inactive),> 100 µM (inactive),> 100 µM (inactive),> 100 µM (inactive),> 100 µM (inactive),> 100 µM (inactive),> 100 µM (inactive),> 100 µM (inactive),> 100 µM (inactive),> 100 µM (inactive),> 100 µM (inactive),> 100 µM (inactive),> 100 µM (inactive)
